{"source": "patent US12698311B2", "about": "“Process for the preparation of an antimicrobial peptide” (INSTITUTE OF BIORESOURCES AND SUSTAINABLE DEVELOPMENT, priority 2020, dated 2026)", "key": {"[1]": {"assay_type": "cell-based", "conditions": "broth dilution bioassay", "protocol": "The peptides were recovered by lyophilization and stored at −20° C. until further use. The MIC of the RP-HPLC purified bioactive metabolite was determined to be 0.0365 μg μl^−1 with broth dilution bioassay. The two peaks were detected in the selected wavelengths of λ280 nm, λ205 nm and λ214 nm. However, only the peak 1 was selected for further study as it had shown more potency in antimicrobial susceptibility test."}, "[2]": {"experiment": "Retention of antimicrobial activity after treatment with inorganic solvents and temperature", "assay_type": "physicochemical", "design": "key to Activity: (+) retention; (−) loss", "excerpt": "Effect of Temperature and Inorganic Solvents:\nThe AMP, Peoriaerin IBSD35 is a very stable biomolecule and works on a wide range of temperature and pH and withstand against inorganic solvents as shown in Table 2 below."}, "[3]": {"experiment": "Retention of antimicrobial activity after treatment with degradative enzymes", "assay_type": "physicochemical", "design": "key to Activity: (+) retention; (−) loss", "protocol": "Effect of Physiological Enzymes:\nThe purified AMP, Peoriaerin IBSD35 is treated with proteolytic enzymes, it can withstand against enzymes and its antimicrobial activity was checked by measuring the zone of inhibition as shown in Table 3 below."}, "[4]": {"experiment": "Retention of antimicrobial activity after treatment with detergents", "assay_type": "physicochemical", "design": "key: (+) retention; (−) loss", "protocol": "The surfactants such as sodium dodecyl sulphate (SDS), Tween 20, Tween 80 and Triton X were incubated with the anti-microbial compound, Peoriaerin IBSD35."}, "[5]": {"test_system": "Candida albicans ATCC 10231, Escherichia coli ATCC 25922, Klebsiella pneumoniae ATCC 4352, Salmonella typhimurium ATCC 14028, Candida tropicalis ATCC 750 and …", "experiment": "Spectrum of antimicrobial activity against AMR pathogens", "assay_type": "cell-based", "conditions": "six ATCC strains listed", "protocol": "Spectrum of antimicrobial activity: The spectrum of activity was determined from the selected test pathogens viz. S. aureus ATCC25923, C. ablicans ATCC 10231, and E. coli ATCC 25922 which represented as a Gram (+), Gram (−) and fungal pathogens (FIG. 2). […] The cell debris were removed by centrifugation at 4000 rpm for 15 min at 4° C. The supernatant was harvested for antimicrobial bioassay and preserved at 4° C. for further purification (Fujita et al., 2007). The well loaded with samples that shown a clear halo zone of inhibition (at least 6-7 mm diameter) were taken as positive against the selected Gram (+ve), Gram (−ve) and fungal pathogens. The bacterial endophytic strain IBSD35 isolated from M. pachycarpa has shown a broad-spectrum of AA against the representative test pathogens in the preliminary Spot-on-lawn bioassay and the Cut-well agar diffusion bioassay (FIG. 2). It inferred antifungal, antibacterial and antimicrobial property of the endophyte strain IBSD35."}}, "note": "No end group written: not given here.", "data": [{"sequence": "GFEFAGAGNGVGRVNSATDATYGLGVFLDAGDNNLAKNAESTGYNDANAVTVTK [Peoriaerin IBSD35]", "values": [{"measurement": "MIC", "setting": "[1]", "value": 36.5, "unit": "µg/mL"}, {"measurement": "stable at a pH in the range", "setting": "[2]", "value": "4-9"}, {"measurement": "Activity", "setting": "[2]; after Acetone (1:1)", "value": "+"}, {"measurement": "Activity", "setting": "[2]; after Butanol (1:1)", "value": "+"}, {"measurement": "Activity", "setting": "[2]; after Ethyl acetate (1:1)", "value": "+"}, {"measurement": "Activity", "setting": "[2]; after Isopropanol (1:1)", "value": "+"}, {"measurement": "Activity", "setting": "[2]; after Methanol (1:1)", "value": "+"}, {"measurement": "Activity", "setting": "[2]; after Petroleum ether (1:1)", "value": "+"}, {"measurement": "Activity", "setting": "[2]; after Temperature 20 ° C.", "value": "+"}, {"measurement": "Activity", "setting": "[2]; after Temperature 40 ° C.", "value": "+"}, {"measurement": "Activity", "setting": "[2]; after Temperature 60 ° C.", "value": "+"}, {"measurement": "Activity", "setting": "[2]; after Temperature 80 ° C.", "value": "+"}, {"measurement": "Activity", "setting": "[2]; after Temperature 100 ° C.", "value": "+"}, {"measurement": "Activity", "setting": "[2]; after Temperature 121 ° C.", "value": "+"}, {"measurement": "Activity", "setting": "[3]; after Catalase", "value": "+"}, {"measurement": "Activity", "setting": "[3]; after Cellulase", "value": "+"}, {"measurement": "Activity", "setting": "[3]; after Pectinase", "value": "+"}, {"measurement": "Activity", "setting": "[3]; after Pepsin", "value": "+"}, {"measurement": "Activity", "setting": "[3]; after Proteinase K (1 mg/ml)", "value": "+"}, {"measurement": "Zone of inhibition diameter", "setting": "[3]; after Proteinase K (1 mg/ml)", "value": 11, "unit": "mm"}, {"measurement": "Activity", "setting": "[4]; after SDS (1:1)", "value": "+"}, {"measurement": "Activity", "setting": "[4]; after Triton X (1:1)", "value": "+"}, {"measurement": "Activity", "setting": "[4]; after Tween 20 (1:1)", "value": "+"}, {"measurement": "Activity", "setting": "[4]; after Tween 80 (1:1)", "value": "+"}, {"measurement": "antimicrobial activity against gram positive, gram negative and fungal anti-microbial resistant pathogens", "setting": "[5]", "value": "strong and broad spectrum of antimicrobial activity"}]}]}
